# System: alkaline phosphatase activity in T47D cells
# Assay: Effects of progestins and antiprogestins on alkaline phosphatase activity in T47D cells
# Type: cell-based
# Details: Homo sapiens; T47D alkaline phosphatase assay; antagonist mode in the presence of 1 nM progesterone; 24 hours
# Experimental: Effects of Progestins and Antiprogestins on Alkaline Phosphatase Activity in T47D Cells
# This example was performed to identify progestins or antiprogestins by determining a compound's effect on alkaline phosphatase activity in T47D cells.
# Culture medium: DMEM:F12 (1:1) (GIBCO, BRL) supplemented with 5% (v/v) charcoal stripped fetal bovine serum (not heat-inactivated), 100 U/mL penicillin, 100 μg/mL streptomycin, and 2 mM the GlutaMax™ reagent (GIBCO, BRL).
# Alkaline phosphatase assay buffer: • I. 0.1M Tris-HCl, pH 9.8, containing 0.2% the Triton® X-100 reagent • II. 0.1 M Tris-HCl, pH 9.8, containing 4 mM p-nitrophenyl phosphate (Sigma).
# Frozen T47D cells were thawed in a 37° C. water bath and diluted to 280,000 cells/mL in culture medium. To each well in a 96-well plate (Falcon, Becton Dickinson Labware), 180 μL of diluted cell suspension was added. Twenty μL of reference or test compounds diluted in the culture medium was then added to each well. When testing for progestin antagonist activity, reference antiprogestins or test compounds were added in the presence of 1 nM progesterone. The cells were incubated at 37° C. in a 5% CO2/humidified atmosphere for 24 hours. NOTE: For high throughput screening, one concentration of each compound was tested at 0.3 μg/mL. Based on an average molecular weight of 300 g/mol for the compounds in the library, the concentration was approximately 1 μM. Subsequently, active compounds were tested in dose response assays to determine EC50 and IC50.
# At the end of treatment, the medium was removed from the plate. Fifty μL of assay buffer I was added to each well. The plates were shaken in a titer plate shaker for 15 minutes. 150 μL of assay buffer II was then added to each well. Optical density measurements were taken at 5 minute intervals for 30 minutes at a test wavelength of 405 nm.
# For reference and test compounds, a dose response curve was generated for dose (X-axis) vs. the rate of enzyme reaction (slope) (Y-axis). Square root-transformed data was used for analysis of variance and nonlinear dose response curve fitting for both agonist and antagonist modes. Huber weighting was used to down-weight the effects of outliners. EC50 or IC50 values were calculated from the retransformed values. JMP software (SAS Institute, Inc.) was used for both one-way analysis of variance and non-4 linear dose response analysis in both single dose and dose response studies.
# Progesterone and trimegestone are reference progestins known in the art and typically show an EC50 of about 0.1 nM to about 2.0 nM.
row,SMILES,IC50 [nM]
1,"Cn1c(C#N)ccc1-c1ccc(S(=O)(=O)NCC2CC2)c(OC(F)(F)F)c1 [Example 55, 4-(5-cyano-1-methyl-1H-pyrrol-2-yl)-N-(cyclopropylmethyl)-2-(trifluoromethoxy)benzenesulfonamide]",12.3
2,"CC(C)NS(=O)(=O)c1ccc(-c2ccc(C#N)n2C)cc1OC(F)(F)F [Example 51, 4-(5-cyano-1-methyl-1H-pyrrol-2-yl)-N-isopropyl-2-(trifluoromethoxy)benzenesulfonamide]",32.5
3,"Cn1c(C#N)ccc1-c1ccc(S(=O)(=O)NCC2CC2)c(C(F)(F)F)c1 [Example 28, 4-(5-cyano-1-methyl-1H-pyrrol-2-yl)-N-(cyclopropylmethyl)-2-(trifluoromethyl)benzenesulfonamide]",34.9
4,"Cn1c(C#N)ccc1-c1ccc(S(=O)(=O)NCC2CC2)cc1 [Example 17, 4-(5-cyano-1-methyl-1H-pyrrol-2-yl)-N-(cyclopropylmethyl)benzenesulfonamide]",27.6
5,"Cn1c(C#N)ccc1-c1ccc(S(=O)(=O)NC2CC2)cc1 [Example 14, 4-(5-cyano-1-methyl-1H-pyrrol-2-yl)-N-cyclopropylbenzenesulfonamide]",6.6
6,"Cn1c(C#N)ccc1-c1ccc(S(=O)(=O)NC2CCC2)cc1 [Example 13, 4-(5-cyano-1-methyl-1H-pyrrol-2-yl)-N-cyclobutylbenzenesulfonamide]",13.9
7,"Cn1c(C#N)ccc1-c1ccc(S(=O)(=O)N2CCOCC2)cc1 [Example 12, 1-methyl-5-[4-(morpholin-4-ylsulfonyl)phenyl]-1H-pyrrole-2-carbonitrile]",189
8,"Cn1c(C#N)ccc1-c1ccc(S(=O)(=O)n2cccc2)cc1 [Example 18, 1-methyl-5-[4-(1H-pyrrol-1-ylsulfonyl)phenyl]-1H-pyrrole-2-carbonitrile]",48.1
9,"Cn1c(C#N)ccc1-c1ccc(S(=O)(=O)NC2CCC2)c(C(F)(F)F)c1 [Example 29, 4-(5-cyano-1-methyl-1H-pyrrol-2-yl)-N-cyclobutyl-2-(trifluoromethyl)benzenesulfonamide]",17
10,"Cn1c(C#N)ccc1-c1ccc(S(N)(=O)=O)c(OC(F)(F)F)c1 [Example 46, 4-(5-cyano-1-methyl-1H-pyrrol-2-yl)-2-(trifluoromethoxy)benzenesulfonamide]",75.8
11,"CCNS(=O)(=O)c1ccc(-c2ccc(C#N)n2C)cc1OC(F)(F)F [Example 49, 4-(5-cyano-1-methyl-1H-pyrrol-2-yl)-N-ethyl-2-(trifluoromethoxy)benzenesulfonamide]",122
12,"Cn1c(C#N)ccc1-c1ccc(S(=O)(=O)NC2CCC2)c(F)c1 [Example 45, 4-(5-cyano-1-methyl-1H-pyrrol-2-yl)-N-cyclobutyl-2-fluorobenzenesulfonamide]",99.4

# Next, values leading:
row,IC50 [nM],SMILES
1,40.8,"Cn1c(C#N)ccc1-c1ccc(S(=O)(=O)NCC(F)(F)F)cc1 [Example 16, 4-(5-cyano-1-methyl-1H-pyrrol-2-yl)-N-(2,2,2-trifluoroethyl)benzenesulfonamide]"
2,128,"CN(C)S(=O)(=O)c1ccc(-c2ccc(C#N)n2C)c(F)c1 [Example 32, 4-(5-cyano-1-methyl-1H-pyrrol-2-yl)-3-fluoro-N,N-dimethylbenzenesulfonamide]"
3,49.3,"CC(C)NS(=O)(=O)c1cc(F)c(-c2ccc(C#N)n2C)cc1F [Example 60, 4-(5-cyano-1-methyl-1H-pyrrol-2-yl)-2,5-difluoro-N-isopropylbenzenesulfonamide]"
4,45.6,"Cn1c(C#N)ccc1-c1ccc(S(=O)(=O)NCC2CC2)c(F)c1 [Example 44, 4-(5-cyano-1-methyl-1H-pyrrol-2-yl)-N-(cyclopropylmethyl)-2-fluorobenzenesulfonamide]"
5,18.1,"Cn1c(C#N)ccc1-c1ccc(S(=O)(=O)NC2CCC2)cc1F [Example 40, 4-(5-cyano-1-methyl-1H-pyrrol-2-yl)-N-cyclobutyl-3-fluorobenzenesulfonamide]"
6,25.9,"CN(C)c1cc(-c2ccc(C#N)n2C)ccc1S(=O)(=O)N(C)C [Example 58, 4-(5-cyano-1-methyl-1H-pyrrol-2-yl)-2-(dimethylamino)-N,N-dimethylbenzenesulfonamide]"
7,11.4,"CCNS(=O)(=O)c1ccc(-c2ccc(C#N)n2C)cc1 [Example 3, 4-(5-cyano-1-methyl-1H-pyrrol-2-yl)-N-ethylbenzenesulfonamide]"
8,48.1,"CC(C)NS(=O)(=O)c1ccc(-c2ccc(C#N)n2C)cc1F [Example 42, 4-(5-cyano-1-methyl-1H-pyrrol-2-yl)-2-fluoro-N-isopropylbenzenesulfonamide]"
9,65.6,"CCN(CC)S(=O)(=O)c1ccc(-c2ccc(C#N)n2C)c(F)c1 [Example 34, 4-(5-cyano-1-methyl-1H-pyrrol-2-yl)-N,N-diethyl-3-fluorobenzenesulfonamide]"
10,27.5,"CC(C)NS(=O)(=O)c1ccc(-c2ccc(C#N)n2C)cc1 [Example 5, 4-(5-cyano-1-methyl-1H-pyrrol-2-yl)-N-isopropylbenzenesulfonamide]"
11,13.1,"CCNS(=O)(=O)c1ccc(-c2ccc(C#N)n2C)c(F)c1 [Example 33, 4-(5-cyano-1-methyl-1H-pyrrol-2-yl)-N-ethyl-3-fluorobenzenesulfonamide]"
12,8.5,"CNS(=O)(=O)c1ccc(-c2ccc(C#N)n2C)c(F)c1 [Example 31, 4-(5-cyano-1-methyl-1H-pyrrol-2-yl)-3-fluoro-N-methylbenzenesulfonamide]"
13,13.9,"CNS(=O)(=O)c1ccc(-c2ccc(C#N)n2C)cc1 [Example 1, 4-(5-cyano-1-methyl-1H-pyrrol-2-yl)-N-methylbenzenesulfonamide]"
14,81.9,"CN(C)S(=O)(=O)c1ccc(-c2ccc(C#N)n2C)cc1C(F)(F)F [Example 20, 4-(5-cyano-1-methyl-1H-pyrrol-2-yl)-N,N-dimethyl-2-(trifluoromethyl)benzenesulfonamide]"
15,40.4,"Cn1c(C#N)ccc1-c1ccc(S(=O)(=O)NCC2CC2)cc1F [Example 39, 4-(5-cyano-1-methyl-1H-pyrrol-2-yl)-N-(cyclopropylmethyl)-3-fluorobenzenesulfonamide]"
16,26.8,"CC(C)NS(=O)(=O)c1ccc(-c2ccc(C#N)n2C)c(F)c1 [Example 35, 4-(5-cyano-1-methyl-1H-pyrrol-2-yl)-3-fluoro-N-isopropylbenzenesulfonamide]"
17,47.9,"CC(C)CNS(=O)(=O)c1ccc(-c2ccc(C#N)n2C)cc1 [Example 6, 4-(5-cyano-1-methyl-1H-pyrrol-2-yl)-N-isobutylbenzenesulfonamide]"
18,45.8,"CCNS(=O)(=O)c1ccc(-c2ccc(C#N)n2C)cc1C(F)(F)F [Example 24, 4-(5-cyano-1-methyl-1H-pyrrol-2-yl)-N-ethyl-2-(trifluoromethyl)benzenesulfonamide]"

# Same assay, conditions: T47D alkaline phosphatase assay; antagonist mode in the presence of 1 nM progesterone; 24 hours
row,SMILES,Active Dose [nM]
1,"Cn1c(C#N)ccc1-c1ccc(S(=O)(=O)NC(C)(C)C)c(OC(F)(F)F)c1 [Example 57, N-tert-butyl-4-(5-cyano-1-methyl-1H-pyrrol-2-yl)-2-(trifluoromethoxy)benzenesulfonamide]",30
2,"Cn1c(C#N)ccc1-c1cc(F)c(S(=O)(=O)NC2CC2)cc1F [Example 61, 4-(5-cyano-1-methyl-1H-pyrrol-2-yl)-N-cyclopropyl-2,5-difluorobenzenesulfonamide]",30

# Source: patent US7723332B2, “Aryl sulfonamides useful for modulation of the progesterone receptor” (Wyeth LLC, priority 2007, dated 2010)
